Test results: patent US8242136B2, “Use of glucosidase inhibitors for therapy of mucovisidosis” (Centre National de la Recherche Scientifique (C.N.R.S.), priority 2003, dated 2012)
Entries after “also recorded” stand apart in the source; their conditions may differ.

Columns and labels:
tissues in culture = settings: high concentration (2 mM); cited from earlier work
wild-type CFTR [1] = experiment: Iodide efflux on Calu-3 cells pre-treated for 2 hours: addressing of wild-type CFTR; assay type: cell-based, human; settings: Calu-3 cells pre-incubated 2 hours at 37° C. (NB-DNJ 500μM or MPB-91 250μM), stimulated with 250μM MPB-91
Procedure: (§1) Calu-3 cells: Calu-3 cells are human epithelial cells of pulmonary origin which express the wild-type CFTR gene.
(§2) The measurements of chloride ion transport in the cells were carried out using the radioactive iodide efflux technique (Becq et al., 1999; Dormer et al., 2001). The tracer (^125I) is incorporated into the intracellular medium. Then, the quantity of radiotracer leaving the cell is counted after the addition of different pharmacological agents. The iodide is used as a tracer of the chloride ion transport. […] 2 rinsings with efflux medium (NaCl: 136.6 mM, KCl: 5.4 mM, KH2PO4: 0.3 mM, NaH2PO4: 0.3 mM, NaHCO3: 4.2 mM, CaCl2: 1.3 mM, MgCl2: 0.5 mM, MgSO4: 0.4 mM, HEPES: 10 mM, D-glucose: 5.6 mM) are carried out in order to eliminate the dead cells which release the radioactivity in an anarchic manner. […] The robot (MultiPROBE, Packard) carries out the following stages: The charge medium is rinsed with efflux medium in order to eliminate the extracellular radioactivity. […] At the end of the experiment, the cells are lysed by the addition of 500 μl of NaOH (0.1 N)/0.1% SDS (30 minutes), thus, the radioactivity remaining inside the cell can be determined. The radioactivity present in the haemolysis tubes is counted in counts per minute (cpm) using a gamma counter (Cobra II, Packard). […]

[2] = patients suffering from acquired immunodeficiency syndrome; cited from earlier work
wild-type CFTR [3] = target: T1, wild-type CFTR (Homo sapiens, UniProt P13569); experiment: Iodide efflux on Calu-3 cells: compound tested as activator; assay type: cell-based; settings: fsk 5μM, MPB-91 250μM, NB-DNJ 500μM, n=8
T1 construct: Calu-3 cells are human epithelial cells of pulmonary origin which express the wild-type CFTR gene; endogenous in cells; host or cells: Calu-3 human pulmonary epithelial cells
T1 sequence (P13569 whole entry): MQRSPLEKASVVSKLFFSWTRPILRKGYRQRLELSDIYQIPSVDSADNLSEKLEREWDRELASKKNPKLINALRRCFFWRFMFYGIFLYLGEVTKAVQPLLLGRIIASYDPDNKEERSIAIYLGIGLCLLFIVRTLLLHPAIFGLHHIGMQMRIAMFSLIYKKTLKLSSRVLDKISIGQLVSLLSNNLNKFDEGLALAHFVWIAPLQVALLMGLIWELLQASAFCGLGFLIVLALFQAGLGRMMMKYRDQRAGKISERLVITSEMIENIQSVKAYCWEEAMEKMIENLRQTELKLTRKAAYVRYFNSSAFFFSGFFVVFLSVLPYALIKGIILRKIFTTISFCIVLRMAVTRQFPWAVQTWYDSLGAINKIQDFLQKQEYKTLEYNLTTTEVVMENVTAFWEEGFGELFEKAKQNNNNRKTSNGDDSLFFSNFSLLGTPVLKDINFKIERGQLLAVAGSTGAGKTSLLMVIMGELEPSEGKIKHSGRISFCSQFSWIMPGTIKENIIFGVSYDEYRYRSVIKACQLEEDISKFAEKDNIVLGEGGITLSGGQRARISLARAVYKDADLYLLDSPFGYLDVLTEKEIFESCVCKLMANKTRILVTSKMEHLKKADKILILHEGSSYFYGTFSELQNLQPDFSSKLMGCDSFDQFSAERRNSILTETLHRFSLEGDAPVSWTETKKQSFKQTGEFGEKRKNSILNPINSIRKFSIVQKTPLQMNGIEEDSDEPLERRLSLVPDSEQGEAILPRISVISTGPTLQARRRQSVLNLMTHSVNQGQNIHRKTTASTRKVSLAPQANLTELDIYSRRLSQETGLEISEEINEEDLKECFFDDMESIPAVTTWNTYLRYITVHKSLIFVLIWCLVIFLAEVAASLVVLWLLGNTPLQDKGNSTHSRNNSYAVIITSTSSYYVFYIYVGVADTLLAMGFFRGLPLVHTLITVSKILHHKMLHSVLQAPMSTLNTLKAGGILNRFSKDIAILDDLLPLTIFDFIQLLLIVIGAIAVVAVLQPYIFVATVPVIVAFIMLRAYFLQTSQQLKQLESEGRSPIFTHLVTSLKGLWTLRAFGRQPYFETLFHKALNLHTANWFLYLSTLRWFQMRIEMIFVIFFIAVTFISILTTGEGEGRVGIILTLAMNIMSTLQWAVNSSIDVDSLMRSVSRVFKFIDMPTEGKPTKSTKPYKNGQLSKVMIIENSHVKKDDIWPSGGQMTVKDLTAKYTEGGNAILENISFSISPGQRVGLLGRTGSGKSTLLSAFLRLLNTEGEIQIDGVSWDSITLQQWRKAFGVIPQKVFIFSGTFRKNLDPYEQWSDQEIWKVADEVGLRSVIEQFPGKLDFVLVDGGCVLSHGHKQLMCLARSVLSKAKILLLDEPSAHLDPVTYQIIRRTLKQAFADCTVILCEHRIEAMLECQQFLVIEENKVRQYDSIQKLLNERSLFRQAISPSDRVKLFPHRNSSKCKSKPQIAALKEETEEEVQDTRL
Procedure: as §1, §2

delF508-CFTR [4] = experiment: Immunolabelling / cell imaging of delF508 location in CF15 cells; assay type: cell-based, human; settings: CF15 cells after treatment
Procedure: Immunolabelling makes it possible to visualize the cell location of the CFTR protein by means of an anti-CFTR primary antibody (Ab) then a primary anti-antibody secondary antibody labelled with Cy3 fluorophore. The cells are previously seeded on lamellae in appropriate culture medium. 3 washings with TBS (NaCl: 157 mM, Tris base: […], pH 7.4) of 5 minutes each are carried out. The cells are then fixed by the addition of TBS-paraformadehyde (3%) over 20 minutes. After 3 washings with TBS (5 minutes), the cells are incubated with 0.1% TBS-triton (10 minutes) which allows the formation of holes in the cell membrane, then 3 washings with TBS are once again carried out before bringing the cells together with 0.5% TBS-BSA-0.05% saponin for 1 hour. The cells are then incubated with the CFTR anti-C terminal primary antibody (2μg/ml) for 1 hour. 3 washings with TBS-BSA-saponin of 5 minutes each are carried out before incubation with the GAM-cy3 secondary antibody ( 1/400) for 1 hour. Following two 5-minute washings with TBS, the nuclei are labelled by incubation with Topro3 ( 1/1000) for 5 minutes. Finally, the lamellae can be mounted on slides after three last 5-minute washings with TBS. […] In order to differentiate between Cy3 and Topro3 labelling the colour of fluorescence of Topro3 has been changed to blue (colour of the nuclei). […]

CHO-WT cells = experiment: MTT cytotoxicity test on CHO-WT cells; assay type: cell-based, Chinese Hamster; settings: 2 hours; for cytotoxicity (MTT): CHO cells
Procedure: CHO-WT cells: CHO (Chinese Hamster Ovary) cells are fibroblasts which have been transfected with the wild-type CFTR gene (CFTR-WT). These cells will therefore overexpress the CFTR protein.
The MTT toxicity test is a colorimetric test which is based on the ability of the mitochondrial dehydrogenases to metabolize MTT (yellow tetrazolium salt) to formazan (purple). The absorbance, proportional to the concentration of converted dye, can then be measured by spectrophotometry. The cells are incubated on 96-well plates in the presence of the agent to be tested for 2 hours. 3 controls are carried out: 100% live cells: cells without agent; 0% live cells: cells left in the open air; blank: medium without cells. […] Then they are incubated for 4 hours with 100 μl of RPMI solution supplemented with MTT (0.5 mg/ml). The medium is then eliminated, the addition of 100 μl of DMSO makes it possible to solubilize the converted dye (formazan). The absorbance is measured by spectrophotometry at: 570 nm (purple); 630 nm (background noise). In order to be rid of the background noise, the following calculation is carried out: ODreal=OD570 nm−OD630 nm.
For the purpose of testing the cytotoxicity of NB-DNJ, CHO-WT cells were incubated for 2 hours with different concentrations of inhibitors before being subjected to the cell viability test with MTT.
2 hours of treatment of the cells.

delF508-CFTR [5] = experiment: Iodide efflux on CF15 cells: addressing of delF508 after pre-treatment, stimulation with forskolin + genistein; assay type: cell-based, human
Procedure: CF15 cells: CF15 cells are human epithelial cells of nasal origin which express the ΔF508-CFTR gene.
The measurements of chloride ion transport in the cells were carried out using the radioactive iodide efflux technique (Becq et al., 1999; Dormer et al., 2001). The tracer (^125I) is incorporated into the intracellular medium. Then, the quantity of radiotracer leaving the cell is counted after the addition of different pharmacological agents. The iodide is used as a tracer of the chloride ion transport. It has been shown that the two radiotracers ^125I and ^36Cl could be considered as equivalents for measuring the activity of a chloride channel (Venglarick et al., 1990). ^125I moreover has the advantage of having a short life compared with that of […] (respective half-lives: 30 days and 300,000 years). The cells are cultured on 24-well plates in an appropriate medium. 2 rinsings with efflux medium (NaCl: 136.6 mM, KCl: 5.4 mM, KH2PO4: 0.3 mM, NaH2PO4: 0.3 mM, NaHCO3: 4.2 mM, CaCl2: 1.3 mM, MgCl2: 0.5 mM, MgSO4: 0.4 mM, HEPES: 10 mM, D-glucose: 5.6 mM) are carried out in order to eliminate the dead cells which release the radioactivity in an anarchic manner. Then, the cells are incubated with 500 μl of charge (1 μCi/ml of ^125INa) for 30 minutes for CHO-WT or 1 hour for CF15 and Calu-3. The iodide is in equilibrium on both sides of the cell membrane. The robot (MultiPROBE, Packard) carries out the following stages: The charge medium is rinsed with efflux medium in order to eliminate the extracellular radioactivity. The supernatant is collected every minute in haemolysis tubes and the medium is replaced by an equivalent volume (500 μl). The samples taken in the first 3 minutes are not subjected to the addition of a drug, they make it possible to obtain a stable base line, characterizing the passive exit of the I^− ions. The following 7 samples are obtained in the presence of the molecule to be tested. At the end of the experiment, the cells are lysed by the addition of 500 μl of NaOH (0.1 N)/0.1% SDS (30 minutes), thus, the radioactivity remaining inside the cell can be determined. The radioactivity present in the haemolysis tubes is counted in counts per minute (cpm) using a gamma counter (Cobra II, Packard). The results in cpm are expressed in the form of exit speed of radioactive iodide (R) according to the following formula: R (min^−1)=[ln(^125I t1)−ln(^125I t2)]/(t1−t2) with ^125I t1: cpm at time t1; ^125I t2: cpm at time t2. This iodide flow is represented in the form of a curve. In order to quantify the exit of iodide due to the administration of the molecule tested, the following relative flow is calculated which makes it possible to be rid of the base flow: Relative speed (min^−1)=Rpeak−Rbasal. […] The results are presented in the form of an average+/−SEM. Student's statistical test is used in order to compare the effects of the drugs with the controls (the values corresponding to P<0.01 are considered statistically significant).
For each experiment, the addition of a cocktail (Forskolin 10 μM, Genistein 30 μM) allows the activation of the CFTR when the latter is on the membrane. […]
The CF15 cells were pre-treated for 2 hours with NB-DNJ (500μM). […] The CFTR activity is measured in iodide efflux (n=8 for each condition) after stimulation by fsk 10μM+Gst 30μM.
The CF15 cells were pre-treated for 2 hours with NB-DNJ at different concentrations. The CFTR activity is measured in iodide efflux (n=4 for each concentration) after stimulation with fsk 10μM+Gst 30μM.

delF508-CFTR [6] = experiment: as above; assay type: cell-based, human; settings: CF15 cells treated with 100μM for two hours at 37° C.; Forskolin 10μM + Genistein 30μM; FIG. 7
delF508 = settings: pulmonary epithelial cells; cited from earlier work
[7] = CF15 cells, stimulation Forskolin 10μM + Genistein 30μM

## CCCCN1C[C@H](O)[C@@H](O)[C@H](O)[C@H]1CO [NB-DNJ, N-butyl-deoxynojirimycin]
Tissues in culture
  cytotoxicity on tissues in culture: is not cytotoxic
wild-type CFTR [1]
  CFTR activity (iodide efflux) after 2 hours pre-treatment: the level of CFTR activity is not affected
[2]
  tolerability in patients: well tolerated
wild-type CFTR [3]
  activation of iodide efflux (CFTR activity / anionic transports): is not an activator of the wild-type CFTR nor of other anionic transports of these cells; also recorded: has no effect
delF508-CFTR [4]
  location of delF508 protein by cell imaging: located the delF508 protein in the plasmatic membrane compartments
CHO-WT cells; 5μM
  cytotoxicity (MTT): no cytotoxicity is measurable
CHO-WT cells; 50μM
  cytotoxicity (MTT): no cytotoxicity is measurable
CHO-WT cells; 500μM
  cytotoxicity (MTT): A low toxicity appears
CHO-WT cells; CHO-WT cells, all concentrations
  cell viability / cytotoxicity (MTT): exhibits no cell cytotoxicity
delF508-CFTR [5]; CF15 cells pre-treated 2 hours at 37° C. with 500μM, stimulation fsk 10μM + Gst 30μM, MPB-91 250μM = 100%
  addressing of delF508 and function as ion transporter (iodide efflux): restores addressing of the delF508 protein and allows the latter to function as an ion transporter
delF508-CFTR [5]; CF15 cells pre-treated 2 hours, stimulation fsk 10μM + Gst 30μM, FIG. 2
  EC50: 123 µM

## CCCCN1C[C@H](O)[C@@H](O)[C@@H](O)[C@H]1CO [nB-DGJ]
delF508-CFTR [6]
  addressing of delF508 and function as ion transporter (iodide efflux): no significant effect

## CCCCN1C[C@@H](O)[C@H](O)[C@H](O)[C@@H]1C [nB-DFJ]
delF508-CFTR [6]
  addressing of delF508 and function as ion transporter (iodide efflux): no significant effect

## CCCCN1C[C@@H](O)[C@@H](O)[C@H](O)[C@H]1CO [nB-DMJ]
delF508-CFTR [6]
  addressing of delF508 and function as ion transporter (iodide efflux): restores an addressing of the delF508 protein and allows the latter to function as an ion transporter
delF508-CFTR [5]; [7]
  EC50: 113 µM

## O[C@H]1[C@H](O)[C@@H](O)CN2CC[C@H](O)[C@H]12 [castanospermine]
delF508
  presence of delF508 at the surface of cells: had an effect on the renewal of the presence of delF508 at the surface of pulmonary epithelial cells

## CCCCc1c(O)c2cccc(Cl)c2[n+]2ccccc12 [MPB-91]
wild-type CFTR [1]
  CFTR activity (iodide efflux) after 2 hours pre-treatment: not significantly different
wild-type CFTR [3]
  activation of iodide efflux (CFTR activity / anionic transports): activate an iodide efflux

## OC[C@H]1NC[C@H](O)[C@@H](O)[C@H]1O [DGJ]
delF508-CFTR [6]
  addressing of delF508 and function as ion transporter (iodide efflux): no significant effect

## OC[C@H]1NC[C@H](O)[C@@H](O)[C@@H]1O [DNJ]
delF508-CFTR [6]
  addressing of delF508 and function as ion transporter (iodide efflux): restores an addressing of the delF508 protein and allows the latter to function as an ion transporter
delF508-CFTR [5]; [7]
  EC50: > 250 µM

## OCC1NCC(O)C(O)C1O (stereo not drawn) [DMJ]
delF508-CFTR [6]
  addressing of delF508 and function as ion transporter (iodide efflux): restores an addressing of the delF508 protein and allows the latter to function as an ion transporter
delF508-CFTR [5]; [7]
  EC50: 134 µM

## C[C@@H]1NC[C@@H](O)[C@H](O)[C@@H]1O [DFJ]
delF508-CFTR [6]
  addressing of delF508 and function as ion transporter (iodide efflux): no significant effect
